Key:
[1] = tested on: Chk2−/− cells; assay: cell cycle analysis, Chk2-/- MDA-MB231 derivative; format: cell-based
Method: Cells were treated with various concentrations of stilbene 4a or CA4 for 16 hours followed by PI staining and FACscan analysis. […] A unique feature of stilbene 4a was noted when cells were treated with 30 nM.
Due to the structural similarity between stilbene 4a and CA4, we investigated the difference in the biological activity of these two compounds in MDA-MB231 breast cancer cells and their Chk2−/− derivatives. […] MDA-MB231 cells were treated with 10 nM stilbene 4a or 1 nM CA4. […] However, a difference in cell cycle change was observed following treatment with 30 nM of stilbene 4a versus 3 nM of CA4. […] This was also the case for cells treated with 100 nM stilbene 4a. A significant subG1/0 population was also noted. […] One possible effect could be a DNA damage response, which is a common mechanism of multiple chemotherapeutic agents but not one of pure microtubule-interfering agents such a paclitaxel or vincristine. […] We then obtained conditional Chk1−/− and Chk2−/− cells, which were derived from the same MDA-MB231 cells for the same flow cytometry analysis. […] In contrast, Chk2−/− cells were more sensitive to stilbene 4a. […] This mechanism is not obvious in higher drug concentrations at which the G2 arrest from microtubule interference is dominant. Therefore, in addition to their microtubule interfering effect, stilbenes have another mechanism to induce cell death. Thus, the use of a Chk2 inhibitor in combination with stilbenes may be a viable approach to enhancing the beneficial therapeutic effects of stilbenes.

[2] = tested on: Hep3B hepatocellular carcinoma cells (xenograft); assay: DCE-MRI tumor vascular perfusion, Hep3B xenograft; format: in vivo, mice; settings: 50 mg/kg intraperitoneally
Method: Mice with established tumor xenografts were used for this study. […] Tumor and kidney, as the representative normal organ, were marked by arrowheads. […] Mice were then left overnight to wash out gadolinium and treated with stilbene 4a at 50 mg/kg intraperitoneally. 4 hours after stilbene injection, mice were imaged with the same protocol. […] Only a small amount of residual gadolinium was still in the tissues.
In order to establish that stilbene suppresses tumor perfusion by damaging tumor endothelial cells, we first incubated human vascular endothelial cells with various concentrations of stilbenes in vitro. After 24 hours of incubation, cells were then fixed with 2% paraformaldehyde and stained with anti-tubulin antibody to examine the tubulin disruption and with DAPI to analyze nuclear fragmentation. Dynamic-contrast enhanced magnetic resonance imaging (MRI) scanning was used to investigate tumor perfusion in vivo. Immunodeficient nude mice were first injected with Hep3B hepatocellular carcinoma cells subcutaneously. […] A region of interest (ROI) was chosen from the scan and the MRI signal in the ROI was plotted against time and the initial steepest slope of the curve was calculated to represent the maximal perfusion of the ROI. […] The perfusion rate of the muscle region was normalized and set at 100% and the rate of perfusion in tumor was calculated versus the muscle. […]

[3] = tested on: MDA-MB231 breast cancer cells; assay: Alamar Blue cell growth inhibition, MDA-MB231; format: cell-based; settings: based on previous IC50 data
Summary of the method: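 Cells at 50% confluence treated in triplicate for 48 hours with 0, 0.01, 0.03, 0.1, 0.3, 1.0, 3.0, 10 μM compound or 0.1% DMSO vehicle. Alamar Blue added at 1/10 volume for 2 hours, absorbance at 570 and 600 nm; percentage growth calculated against untreated cells using the extinction-coefficient formula.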

COc1cc(/C=C\c2ccc(OC)c(N)c2)cc(OC)c1 [4a, (Z)-5-[2-(3,5-Dimethoxy-phenyl)-vinyl]-2-methoxy-phenylamine]
cell cycle change at 10 nM ([1]; 10 nM): a significant subG1/0 population developed without G2 arrest | change of effective concentration versus MDA-MB231 ([1]; 16 hours): decreased by three fold | normal vascular perfusion [2]: without compromising normal vascular perfusion | tumor vascular perfusion (gadolinium enhancement) ([2]; 4 hours after injection): significantly less gadolinium enhancement | times less potent than CA4 [3]: 10

Reference: patent publication US7781580B2, “Stilbene derivatives as new cancer therapeutic agents” (Virginia Commonwealth University, priority 2007, dated 2010)
